Experiment [1] has as its system intraocular pressure (IOP) of rat eyes. An excerpt: High IOP was induced in rat eyes, by reducing aqueous humor outflow through episcleral vein cauterization, while the contralateral eyes were sham-operated and were used as controls (FIG. 2).
In experiment [2] the test system is retinal ganglion cells (RGCs). Put plainly: RGC loss in ocular hypertension (glaucoma) model, retrogradely labeled surviving RGCs counted in flat mounted retinas.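 For all read-outs here: female Wistar rats aged 8 weeks with three episcleral veins cauterized in the right eye, sham-operated left eye as normal IOP control, at least six retinas averaged per group.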 The conditions noted are these: for % RGCs loss at day 49 (vs. Normal) / % RGCs loss at day 42 (vs. Norma): cauterized eye; for RGC loss (% of normal IOP): +daily betaxolol (days 4-35).
Description: Using retrograde tracers, surviving RGCs were labeled at the cell soma and flat retinal spreads were analyzed for RGC numbers (Table 2).
Surviving RGCs, identified by retrograde labeling, were counted at day 42 post-surgery. In this protocol, the TrkA agonist or controls were not given between days 21 and 42, to evaluate whether any protection could be long-lived. […] Each data point represents the average of at least 6 retinas/experimental group±sd. […] Peptidomimetic D3 (TrkA agonist) or controls were injected intraocularly, each injection at 1 μg in 1 μl. […] Retrogradely labeled surviving RGCs at day 42 post-cauterization were counted in flat mounted retinas (except rows 3 and 4 that were terminated at days 14 and 28). Two investigators counted the RGCs, with one unaware of the groups.
Episcleral cauterization was performed under anesthesia in Wistar rats, female, 8 weeks of age. After a conjunctival incision, extra-ocular muscles were isolated and the major limbal draining veins were identified based on location, relative immobility, larger caliber and branching pattern. Cauterization of three episcleral vessels in the right eye were done with a 30″ cautery tip. The left eye in each animal was used as normal IOP control after sham-surgery (conjuctival incisions with no cauterization). […] Planar ophthalmoscopy was used to confirm normal perfusion of the retina at elevated IOP. […] IOP was measured using a Tonopen XL tonometer under light anesthesia (intramuscular injection of ketamine, 4 mg/kg; xylazine, 0.32 mg/kg; and acepromazine, 0.4 mg/kg). Initially IOP was measured daily (three consecutive readings are taken each time) and then weekly until termination.
A puncture was made in the eye wall with a 30 G needle to place a cannula in the orbit. The tip of the needle was inserted at a 45° angle through the sclera into the vitreous body. This route of administration avoided injury to eye structures.
Experiment [3] relates to axotomized RGCs. The experiment is described as follows: RGC survival in optic nerve axotomy. In kind it is in vivo. An excerpt: It is important to contrast the results in this glaucoma model with those published in optic nerve axotomy (where the optic nerve is sectioned or crushed and RGC axons are damaged). The two are very different models of RGC damage, where glaucoma is chronic and progressive and is an intraocular disease while axotomy is acute and is an extraocular disease. Thus, in optic nerve axotomy NTFs have been applied successfully. The survival of an axotomized optic nerve was promoted by NGF, BDNF, NT-4, CNTF, as well as bFGF, and GDNF.

A further experiment concerns the target TrkA (Homo sapiens, UniProt P04629). The conditions noted are these: irrespective of whether the p75 receptor is expressed; cited from earlier work.
A further experiment concerns the target T1, p75 receptor (Homo sapiens, UniProt P08138).
T1 sequence (P08138 29-427): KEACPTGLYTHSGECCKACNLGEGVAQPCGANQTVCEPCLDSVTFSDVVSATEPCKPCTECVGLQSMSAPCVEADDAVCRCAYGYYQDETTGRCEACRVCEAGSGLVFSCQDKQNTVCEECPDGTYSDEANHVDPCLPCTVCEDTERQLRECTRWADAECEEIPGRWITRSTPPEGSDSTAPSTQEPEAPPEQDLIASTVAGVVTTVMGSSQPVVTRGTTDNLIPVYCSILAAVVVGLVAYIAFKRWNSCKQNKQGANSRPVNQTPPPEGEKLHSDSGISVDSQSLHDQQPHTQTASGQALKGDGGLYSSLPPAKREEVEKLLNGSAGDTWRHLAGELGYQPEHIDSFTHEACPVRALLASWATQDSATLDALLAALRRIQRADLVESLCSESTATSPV
Particulars: cited from earlier work.

The next experiment deals with CNS. The conditions noted are these: cited from earlier work.
The test system of experiment [4] is axotomized RGCs. Particulars: other studies; cited from earlier work.
[5] abbreviates: daily betaxolol days 14-49 (~17 days of high IOP), intraocular injections at days 14 & 21.
Setting [6] is: daily betaxolol days 14 to 42 (~17 days of high IOP), intraocular injections 1 μg at days 14 & 21.
Setting [7] is: no betaxolol, 42 days of high IOP, intraocular injections 1 μg at days 14 & 21.
Setting [8] is: no betaxolol, 49 days of high IOP, intraocular injections at days 14 & 21.

The values below come from patent US8648169B2, “Methods of use of Trk receptor modulators” (The Royal Institution for the Advancement of …, priority 2006, dated 2014).

Where “and” joins values, the source holds several entries; their conditions need not be identical. Identical values can stand only once. Entries after “also recorded” stand apart in the source; their conditions may differ. No end group written: not given here.

Chain of TrkA (P04629 33-796, species assumed): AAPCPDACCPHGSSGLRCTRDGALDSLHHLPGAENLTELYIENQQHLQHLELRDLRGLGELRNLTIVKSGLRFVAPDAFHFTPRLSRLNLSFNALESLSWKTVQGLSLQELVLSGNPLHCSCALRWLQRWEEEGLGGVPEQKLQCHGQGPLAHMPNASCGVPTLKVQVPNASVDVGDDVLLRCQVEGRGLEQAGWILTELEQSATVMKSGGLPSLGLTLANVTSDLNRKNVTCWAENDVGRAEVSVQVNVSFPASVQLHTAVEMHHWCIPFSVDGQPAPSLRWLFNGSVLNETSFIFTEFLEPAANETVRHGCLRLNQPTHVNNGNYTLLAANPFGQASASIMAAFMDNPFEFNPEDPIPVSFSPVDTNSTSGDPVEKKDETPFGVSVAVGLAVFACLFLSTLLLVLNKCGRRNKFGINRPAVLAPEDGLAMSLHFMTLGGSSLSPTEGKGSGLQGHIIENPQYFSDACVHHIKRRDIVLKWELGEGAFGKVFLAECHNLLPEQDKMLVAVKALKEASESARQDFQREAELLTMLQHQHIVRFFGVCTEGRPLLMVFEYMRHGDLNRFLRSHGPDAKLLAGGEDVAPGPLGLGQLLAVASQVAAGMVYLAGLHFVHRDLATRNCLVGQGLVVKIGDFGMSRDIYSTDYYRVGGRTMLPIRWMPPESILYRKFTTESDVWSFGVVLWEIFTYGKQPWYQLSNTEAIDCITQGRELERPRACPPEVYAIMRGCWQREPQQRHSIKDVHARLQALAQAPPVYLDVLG

As to `CC(C)NCC(O)COc1ccc(CCOCC2CC2)cc1` (stereo not drawn) [Betaxolol, betaxolol, reference compound], in experiment [1] (cauterized rats receiving daily topical betaxolol), the “IOP by day 7” value is given as “normal IOPs”. In addition, in experiment [1] (daily topical betaxolol, normal eyes), the “effect on normal IOP of non-cauterized eyes” value is given as “no significant effect”. Further, the “% RGCs loss at day 49 (vs. Normal)” value is listed as 27 ± 5% in experiment [2] (daily betaxolol days 14-49 alone, no intraocular injection) and 27% in experiment [2] (daily betaxolol days 14-49 alone, no intraocular injection, listed as betaxolol). The “% RGCs loss at day 42 (vs. Norma)” value in experiment [2] (daily betaxolol days 14 to 42 alone, no intraocular injection) was 21 ± 2%; in experiment [2] (daily betaxolol days 14 to 42 alone, no intraocular injection, listed as betaxolol), 21%. Also, the “RGC loss (% of normal IOP)” value in experiment [2] (day 0 post-cautery) is listed as 0%; in experiment [2] (day 7 post-cautery), 3 ± 3%; in experiment [2] (day 14 post-cautery), 4 ± 3%; in experiment [2] (day 21 post-cautery), 7 ± 3%; in experiment [2] (day 28 post-cautery), 10 ± 4%; in experiment [2] (day 35 post-cautery), 14 ± 2%. In experiment [2] (day 42 post-cautery), the “RGC loss (% of normal IOP)” value was determined as 20 ± 5%.

For `NCCCC[C@@H]1NC(=O)C(CCC(=O)O)NC(=O)c2cc([N+](=O)[O-])ccc2OCCC(C(=O)NCC(=O)O)NC1=O` (stereo partly drawn) [D3], the “survival of axotomized RGCs” value in the experiment with axotomized RGCs [3] is “strong survival-promoting effects”. For the same molecule, at TrkA, the “activity at TrkA” value is “selective partial agonist”. Also, the “binding to p75” value on p75 receptor is recorded as “does not bind”. In the experiment on CNS (evaluated previously, spatial memory tests), the “effect on cholinergic neurons in the CNS” value was “protect the number, phenotype, and function of cholinergic neurons”. Further, the “% RGCs loss at day 49 (vs. Normal)” value in experiment [2] (setting [5]) is 18 ± 6%; in experiment [2] (setting [8]), 26 ± 6%. The “% RGCs loss at day 42 (vs. Norma)” value was 11% and 11 ± 4% in experiment [2] (setting [6]); 29% and 29 ± 3% in experiment [2] (setting [7]). Further, the “protection of RGCs, formula (testloss−day14loss)/(day42loss−day14loss)*100” value in experiment [2] (day 42, intraocular injections at days 14 and 21, no betaxolol) is on record as ~25%. For the same molecule, the “protection of RGCs” value in experiment [2] (day 42, intraocular injections at days 14 and 21 in combination with daily betaxolol) was > 90%. Further, the “effect on RGC survival / apoptosis” value in experiment [2] (day 49 glaucoma, intraocular injections at days 14 and 21, alone or with betaxolol) is given as “markedly reduced RGC apoptosis”.

In the case of “NGF: Nerve Growth Factor, neurotrophin that binds TrkA and p75”, the “% RGCs loss at day 42 (vs. Norma)” value in experiment [2] (setting [6]) was 19 ± 4%; in experiment [2] (setting [7]), 42 ± 5%. For the same molecule, the “protection of RGCs from death” value in experiment [2] (day 42 glaucoma, intraocular injections, with or without betaxolol) is on record as “did not protect”.

As to “YCATDIKGKECY (also: cyclic) [C(28-35) peptide]”, the “protection of RGCs in vivo in optic nerve axotomy” value in the experiment on axotomized RGCs [4] was “short-term protection”. The “effect on p75-NGF interactions” value with p75 receptor is listed as “antagonist”. Moreover, in the experiment with CNS (previous in vivo studies), the “in vivo stability and efficacy in the CNS” value is “in vivo stability and efficacy”. Moreover, the “% RGCs loss at day 49 (vs. Normal)” value in experiment [2] (setting [5]) is 29 ± 4%; in experiment [2] (setting [8]), 32 ± 11%. In experiment [2] (rat, in vivo), the “effect on RGC survival / apoptosis” value is reported as “did not enhance RGC survival; also recorded: did not prevent or reduce RGC death”.
